Patent US12344610B2, “APOL1 inhibitors and methods of use” (Maze Therapeutics, Inc., priority 2022, dated 2025)

What follows are compounds tested on human immortalized podocytes inducibly expressing APOL1 G2 (assay: APOL1 G2 podocyte cell rescue assay (Example B4)). Settings: Homo sapiens, differentiated human podocytes, doxycycline-induced APOL1 G2, CellTiter-Glo; geometric mean of at least 2 runs; † = single run.
Type: cell-based
Description: APOL1 G2 human immortalized podocyte viability assay for measurement of cytotoxicity reversal by compound (APOL1 G2 podocyte cell rescue assay).
Cell Handling. The hTERT-immortalized kidney podocyte cell line was procured from the laboratory of Dr. Moin Saleem at the University of Bristol, UK (Nephrology 17 (2012) 525-531; doi:10.1111/j.1440-1797.2012.01619.x; herein incorporated by reference in its entirety). Parental and engineered cell lines were cultured in RPMI 1640 media (Gibco, 11875093) with 10% Tet System Approved FBS (Takara, 631101). The engineered cell line was maintained under selection (2.5 μg/mL puromycin). Cell lines were maintained and engineered at 33° C. Cell cultures were transferred to 37° C. for 10 to 14 days to initiate differentiation (Nephrology 17 (2012) 525-531; doi:10.1111/j.1440-1797.2012.01619.x; herein incorporated by reference in its entirety). During this time, media was refreshed every 3 days. After differentiation, cells engineered to inducibly express APOL1 G2 were used in the podocyte cell rescue assay.
Cell Line Engineering. The APOL1 G2 coding sequence was cloned into the pLVX-TetOne-Puro vector and verified by sequencing (Genscript Biotech). This construct was designed to have a C-terminal HiBiT tag. Lentiviral packaging of the vector was conducted using the Lenti-X Packaging Single Shots (VSVG) system according to manufacturer instructions (Takara Bio, 631275). A stable cell line was generated by transfecting the parental podocyte cell line with the concentrated virus in media with 5 μg/mL polybrene (Sigma, TR-1003-G). Media was changed the following day. 72 hours post transfection, 2.5 μg/mL puromycin (Gibco, A1113803) was added to the cells and cells were maintained in selection media thereafter. This APOL1 G2 stable cellular pool was subjected to a stringent limiting dilution to generate a pure stable clone (Podocyte/pLVX-TetOne APOL1 G2/clone D10) capable of inducible expression of APOL1 G2.
Assay Setup. T175 flasks containing differentiated podocytes engineered to inducibly express APOL1 G2 (Podocyte/pLVX-TetOne APOL1 G2/clone D10) were washed once with 15 mL of DPBS (Thermo Fisher, 14190-144). These flasks were each trypsinized with 3 mL of prewarmed TrypLE Express (Gibco, 12605-010) and incubated at 37° C. with 5% CO2 until cells detached and neutralized with 7 mL of prewarmed assay media (RPMI 1640 media with 10% Tet System Approved FBS, no selection agent). Cells were pooled and the resulting suspension was gently mixed. The cell suspension was counted using a Countess Cell Counting Chamber (Invitrogen) and the cell concentration was adjusted to 240,000 cells/mL using assay media. Next, 25 μL of a 480 ng/mL working stock of doxycycline diluted in assay media was added to an assay ready plate. All experiments were performed in 384-well, white, solid bottom, tissue culture treated plates (Greiner, 781080). The assay ready compound plates were generated with duplicate 8-point compound dilution series that consisted of 3-fold stepwise dilutions (0.4% DMSO final). The plates were centrifuged at 1000 rpm for 1 minute. 25 μL of diluted cell suspension (final cell density=6,000 cells/well) was added to each well. The plates were centrifuged again at 1000 rpm for 1 minute and then incubated in a humidified incubator (37° C. with 5% CO2). After 95 hours, the assay plates were removed from the incubator and allowed to equilibrate to room temperature for 1 hour. CellTiter-Glo® reagent (Promega, G7570) was prepared according to the manufacturer's instructions. 25 μL of CellTiter-Glo® reagent was added to each well. Assay plates were sealed with foil and mixed for 5 minutes on an orbital shaker (500 rpm) to induce cell lysis. Plates were centrifuged at 1000 rpm for 1 minute. 10 minutes after CellTiter-Glo® reagent addition, an Envision plate reader (Perkin Elmer) was used to measure the luminescent signal of each assay plate. Collaborative Drug Discovery software was utilized for graphing data. […]
With CC(O)c1ncc(OCCN2CCC3(CC2)C(=O)Nc2ccc(C(F)F)cc23)cc1C(F)(F)F (single isomer, unassigned) [Compound 287, 5-(difluoromethyl)-1′-[2-({6-[(1S) or (1R)-1-hydroxyethyl]-5-(trifluoromethyl)pyridin-3-yl}oxy)ethyl]-1,2-dihydrospiro[indole-3,4′-piperidin]-2-one] the EC50 was 17.7 nM.
CC[C@]1(O)C[C@H](N2C(=O)CCc3cc(OCCN4CCC5(CC4)C(=O)Nc4ccc(Cl)cc45)cnc32)C1 (single isomer, unassigned) [Compound 290, 5-chloro-1′-[2-({7-oxo-8-[(trans)-3-ethyl-3-hydroxycyclobutyl]-5,6,7,8-tetrahydro-1,8-naphthyridin-3-yl}oxy)ethyl]-1,2-dihydrospiro[indole-3,4′-piperidin]-2-one] showed an EC50 of 2.76 nM.
C[C@]1(O)C[C@H](N2C(=O)CCc3cc(OCCN4CCC5(CC4)C(=O)Nc4ccc(Cl)cc45)cnc32)C1 (single isomer, unassigned) [Compound 307, 5-chloro-1′-[2-({7-oxo-8-[(trans)-3-hydroxy-3-methylcyclobutyl]-5,6,7,8-tetrahydro-1,8-naphthyridin-3-yl}oxy)ethyl]-1,2-dihydrospiro[indole-3,4′-piperidin]-2-one] showed an EC50 of 2.61 nM.
CS(=O)(=O)c1ccc(OCCN2CCC3(CC2)C(=O)N(CCO)c2ccc(Br)cc23)cc1 [Compound 24, 5-bromo-1-(2-hydroxyethyl)-1′-[2-(4-methanesulfonylphenoxy)ethyl]-1,2-dihydrospiro[indole-3,4′-piperidin]-2-one] gave an EC50 of 37.4 nM.
O=C(c1ccc(OCCN2CCC3(CC2)C(=O)Nc2ccc(Cl)cc23)cc1F)N1CCS(=O)(=O)CC1 [Compound 232, 4-[4-(2-{5-chloro-2-oxo-1,2-dihydrospiro[indole-3,4′-piperidin]-1′-yl}ethoxy)-2-fluorobenzoyl]-1λ^6-thiomorpholine-1,1-dione] gave an EC50 of 2.17 nM.
In the case of CS(=O)(=O)C1CN(C(=O)c2ccc(OCCN3CCC4(CC3)C(=O)Nc3ccc(Cl)cc34)cc2F)C1 [Compound 233, 5-chloro-1′-{2-[3-fluoro-4-(3-methanesulfonyl-azetidine-1-carbonyl)phenoxy]ethyl}-1,2-dihydrospiro[indole-3,4′-piperidin]-2-one], the EC50 is reported as 4.25 nM.
O=C(c1ccc(OCCN2CCC3(CC2)C(=O)Nc2ccc(Cl)cc23)cc1F)N1CC2(C1)CS(=O)(=O)C2 [Compound 239, 6-[4-(2-{5-chloro-2-oxo-1,2-dihydrospiro[indole-3,4′-piperidin]-1′-yl}ethoxy)-2-fluorobenzoyl]-2λ^6-thia-6-azaspiro[3.3]heptane-2,2-dione] showed an EC50 of 2.1 nM.
In the case of O=C(c1c(F)cc(OCCN2CCC3(CC2)C(=O)Nc2ccc(Cl)cc23)cc1F)N1CCS(=O)(=O)CC1 [Compound 259, 4-[4-(2-{5-chloro-2-oxo-1,2-dihydrospiro[indole-3,4′-piperidin]-1′-yl}ethoxy)-2,6-difluorobenzoyl]-1λ^6-thiomorpholine-1,1-dione], the EC50 is reported as 1.21 nM.
CN1C(=O)C2(CCN(CCOc3cc(F)c(C(=O)N4CCS(=O)(=O)CC4)c(F)c3)CC2)c2cc(C#N)ccc21 [Compound 260, 1′-{2-[4-(1,1-dioxo-1λ^6-thiomorpholine-4-carbonyl)-3,5-difluorophenoxy]ethyl}-1-methyl-2-oxo-1,2-dihydrospiro[indole-3,4′-piperidine]-5-carbonitrile] showed an EC50 of 10.3 nM.
With CN1C(=O)C2(CCN(CCOc3ccc(C(=O)N4CCS(=O)(=O)CC4)c(C(F)(F)F)c3)CC2)c2cc(C#N)ccc21 [Compound 261, 1′-{2-[4-(1,1-dioxo-1λ^6-thiomorpholine-4-carbonyl)-3-(trifluoromethyl)phenoxy]ethyl}-1-methyl-2-oxo-1,2-dihydrospiro[indole-3,4′-piperidine]-5-carbonitrile] the EC50 was 2.29 nM.
Work on O=C(c1ccc(OCCN2CCC3(CC2)C(=O)Nc2ccc(Cl)cc23)cc1C(F)(F)F)N1CCS(=O)(=O)CC1 [Compound 272, 4-[4-(2-{5-chloro-2-oxo-1,2-dihydrospiro[indole-3,4′-piperidin]-1′-yl}ethoxy)-2-(trifluoromethyl)benzoyl]-1λ^6-thiomorpholine-1,1-dione] yielded an EC50 of 1 nM.
Compound CS(=O)(=O)N1CC2(CN(C(=O)c3ccc(OCCN4CCC5(CC4)C(=O)Nc4ccc(Cl)cc45)cc3F)C2)C1 [Compound 273, 5-chloro-1′-[2-(3-fluoro-4-{6-methanesulfonyl-2,6-diazaspiro[3.3]heptane-2-carbonyl}phenoxy)ethyl]-1,2-dihydrospiro[indole-3,4′-piperidin]-2-one] has an EC50 of 5.2 nM.
C[C@]1(O)C[C@@H](N2C(=O)CCc3cc(OCCN4CCC5(CC4)C(=O)Nc4ccc(C(F)F)cc45)cnc32)C1 [Compound 274, 5-(difluoromethyl)-1′-[2-({7-oxo-8-[(cis)-3-hydroxy-3-methylcyclobutyl]-5,6,7,8-tetrahydro-1,8-naphthyridin-3-yl}oxy)ethyl]-1,2-dihydrospiro[indole-3,4′-piperidin]-2-one] gave an EC50 of 18.8 nM.
In the case of C[C@]1(O)C[C@@H](N2C(=O)CCc3cc(OCCN4CCC5(CC4)C(=O)Nc4ccc(Cl)cc45)cnc32)C1 [Compound 275, 5-chloro-1′-[2-({7-oxo-8-[(cis)-3-hydroxy-3-methylcyclobutyl]-5,6,7,8-tetrahydro-1,8-naphthyridin-3-yl}oxy)ethyl]-1,2-dihydrospiro[indole-3,4′-piperidin]-2-one], the EC50 is reported as 3.89 nM.
Work on CS(=O)(=O)C1(c2ncc(OCCN3CCC4(CC3)C(=O)Nc3ccc(Cl)cc34)cn2)COC1 [Compound 276, 5-chloro-1′-(2-{[2-(3-methanesulfonyloxetan-3-yl)pyrimidin-5-yl]oxy}ethyl)-1,2-dihydrospiro[indole-3,4′-piperidin]-2-one] yielded an EC50 of 10.4 nM.
Compound CS(=O)(=O)C1(c2ncc(OCCN3CCC4(CC3)C(=O)Nc3ccc(C#N)cc34)cc2F)CC1 [Compound 283, 1′-(2-{[5-fluoro-6-(1-methanesulfonylcyclopropyl)pyridin-3-yl]oxy}ethyl)-2-oxo-1,2-dihydrospiro[indole-3,4′-piperidine]-5-carbonitrile] has an EC50 of 5.08 nM.
For CC(O)c1ncc(OCCN2CCC3(CC2)C(=O)Nc2ccc(Cl)cc23)cn1 (centres unmarked) [Compound 284, 5-chloro-1′-(2-{[2-(1-hydroxyethyl)pyrimidin-5-yl]oxy}ethyl)-1,2-dihydrospiro[indole-3,4′-piperidin]-2-one], the EC50 was 105 nM.
For C[C@]1(O)C[C@@H](N2C(=O)OCc3cc(OCCN4CCC5(CC4)C(=O)Nc4ccc(Cl)cc45)cnc32)C1 [Compound 289, 5-chloro-1′-[2-({2-oxo-1-[(cis)-3-hydroxy-3-methylcyclobutyl]-1H,2H,4H-pyrido[2,3-d][1,3]oxazin-6-yl]oxy)ethyl]-1,2-dihydrospiro[indole-3,4′-piperidin]-2-one], the EC50 was 2.22 nM.
CC1(O)CN(c2ncc(OCCN3CCC4(CC3)C(=O)Nc3ccc(Cl)cc34)cn2)C1 [Compound 300, 5-chloro-1′-(2-{[2-(3-hydroxy-3-methylazetidin-1-yl)pyrimidin-5-yl]oxy}ethyl)-1,2-dihydrospiro[indole-3,4′-piperidin]-2-one] gave an EC50 of 33.3 nM.

Same assay, conditions: differentiated human podocytes, doxycycline-induced APOL1 G2, CellTiter-Glo; geometric mean of at least 2 runs; † = single run
For CC(O)c1ncc(OCCN2CCC3(CC2)C(=O)Nc2ccc(C(F)F)cc23)cc1C(F)(F)F (single isomer, unassigned) [Compound 288, 5-(difluoromethyl)-1′-[2-({6-[(1R) or (1S)-1-hydroxyethyl]-5-(trifluoromethyl)pyridin-3-yl}oxy)ethyl]-1,2-dihydrospiro[indole-3,4′-piperidin]-2-one], the EC50 was 19.5 nM.
